In US20200077655A1, “Use of an Acyclic Picolinamide Compound as a Fungicide for Control of Phytopathogenic Fungi in Orchard, Vineyard and Plantation Crops” (Dow AgroSciences LLC, priority 2017, published 2020):

Experiments:
Type in all cases: in vivo
[1] = test system: Monilinia fructicola (MONIFC); assay: Field assessment on brown rot of fruits on nectarines, harvest and shelf life simulation; conditions: curative; for Percent control based on fruit incidence vs untreated, Harvest: 8 DAAB
Source text: A fungicidal treatment containing Compound I, applied in a 5% EC formulation and tank mixed with an adjuvant (Trycol, 50% w/w at 0.2% v/v), was sprayed twice during fruit ripening on the plant canopy of nectarines (PRNPN, Calfornia variety) at rates of 50, 100, and 150 grams of active ingredient per hectare (g ai/ha). The applications were done at 8 day intervals with disease inoculation 12 days before the first application (curative). The treatment was part of an experimental trial designed as a randomized complete block with four replications and a plot of approximately 4.3×6.0 m, with compound I being applied using a MISTBLOW, Solo backpack applicator at a water volume of 800 L/ha.
The pathogen was certified to be Monilinia fructicola (MONIFC) by means of an immunoassay followed by a PCR assay on material collected (mummies) from the trial. The brown rot disease at harvest was evaluated on 100 randomly picked fruits per plot, 8 days after application B (8 DAAB), calculating the incidence of fruit with disease and then the percent control using Abbotts. Visually healthy samples of 60 fruits per plot were then placed in alveolus plates and kept for 5 days in cold storage. The samples were then maintained for […] at about 20° C. (shelf life period). Several assessments were made to check the development of disease during the shelf life simulation. In particular, the percentage of rotten fruits were checked at the exit from cold storage (after 5 days of refrigeration, 13 DAAB) followed by 15, 17, 20 and 23 DAAB. Percent of fruit with disease was calculated (incidence) amd then percent control was calculated using Abbotts.

[2] = test system: Botrytis cinerea (BOTRCI); assay: Strawberry shelf-life simulation, gray mold
Source text: Strawberry shelf-life simulation (3 repetitions): Fungicidal treatments were applied to strawberry plants grown in a shade house to obtain healthy fruits. Once matured, the healthy fruits were harvested and transferred to a laboratory for a shelf-simulation study. In the laboratory, the fruits were bleach decontaminated to remove residual chemical residue. Compound I, applied in a 5% EC formulation and mixed with an adjuvant (Trycol, 50% w/w at 0.2% v/v), was sprayed on the healthy strawberries at rates of 50, 100 and 150 grams of active ingredient per hectare (g ai/ha) and allowed to dry completely. The fruits were then inoculated with gray mold and incubated on a laboratory bench at 20° C. Disease severity was recorded as a percentage of fruit infection assessments. Gray mold infection was assessed twice after the initial inoculation, 4 days after infection (4DAI) and 6DAI. Area under the disease progress curve (AUDPC) was calculated for each repetition using the sets of recorded severity data. Relative AUDPC (% control based on AUDPC) was calculated as percent of the nontreated control.

[3] = test system: Rhizopus stolonifer (RIZPST); assay: Field microplot assessment on Rhizopus rot on apricots; conditions: field grown apricots
Source text: A field trial assessing the utility of Compound I on rot diseases of stone fruits was done using apricots in a microplot method, part of an experimental trial designed as a randomized complete block with four replications. In a microplot method, two mature fruits on a single branch or cluster of fruits were selected for each replication (for a total of 10 replications) instead of using an entire replication. Colored flagging identified treatments. Fungicidal treatments containing Compound I, applied in a 5% EC formulation and tank mixed with an adjuvant (Trycol, 50% w/w at 0.2% v/v), were sprayed on apricots (PRNAR) at rates of 50, 100, and 150 grams of active ingredient per hectare (g ai/ha). The applications to the selected mature apricots were done at 7 days before harvest using a hand held manual spray bottle at a water volume of 500 L/ha. One day after application, a ZipLoc plastic bag was placed over the fruit or fruit cluster and an inoculation mix of MONIFC (Rhizopus was from natural population present in the orchard) was sprayed inside covering the fruits. The plastic bags were removed after 24 hours. At harvest, the fruits were collected in the field and placed in plastic Tupperware containers. 150 mL of de-ionized water was poured in the bottom of the Tupperware containers and the fruits were sprayed with a light mist of water. The containers were brought to the lab, enclosed in a large trash bag to keep the humidity high, and incubated on a lab bench at approximately 23° C. Visual disease incidence was assessed during the trial at 9 and 16 days after application. Area under the disease progress curve (AUDPC) was calculated for each plot using the sets of recorded incidence data. Relative AUDPC (% control based on AUDPC) was calculated as percent of the nontreated control.

[4] = test system: Cladosporium caryigenum (CLADCA); assay: Field assessment of two trials for pecan nut scab
Source text: A fungicidal treatment containing Compound I, applied in an SC formulation (MSO built-in) and tank mixed with an adjuvant (Agnique BP-420, 50% w/w at 0.2% v/v or Adsee C80W 80%), was sprayed on pecan trees (CYAIL, Desirable variety) from pre-flowering up to nut hardening at rates of 60, 120, 150, and 180 g ai/ha. The experimental plots were run with natural infestation. The treatment was part of an experimental trial designed as a randomized complete block (RCB) with four replications and a plot of approximately 40×40 ft, respectively. In one test, compound I was applied in 9 applications at water volume of 94-115 gallons per acre (gal/acre), using an Airblast sprayer (Hollowcone solid disc D10/45 nozzles) and pressurized at 46-54 psi. In the second test, compound I was applied in 8 applications at water volume of […] sprayer (solid stream nozzle) and pressurized at 300 psi. Both trials targeted 14 day intervals for applications.
Disease evaluations were made as % incidence and % severity nuts in one test, 3 evaluations each, 9 applications, and as % incidence nuts and % severity leaves in the second test, 2 and 3 evaluations, respectively, 8 applications. Area under the disease progress curve (AUDPC) was calculated for each plot using the sets of recorded severity and incidence data. Relative AUDPC (% control based on AUDPC) was calculated as percent of the untreated control.

Structure (SMILES): COc1ccnc(C(=O)N[C@@H](C)C(=O)O[C@@H](C)C(c2ccc(F)cc2)c2ccc(F)cc2)c1OC(C)=O [Compound I, (S)-1,1-bis(4-fluorophenyl)propan-2-yl (3-acetoxy-4-methoxypicolinoyl)-L-alaninate]
- Percent control based on fruit incidence vs untreated, Shelf Life Simulation ([1]; 50 g ai/ha): C (26-50)
- Percent control based on fruit incidence vs untreated, Harvest ([1]; 50 g ai/ha): B (51-75)
- Percent control based on fruit incidence vs untreated, Shelf Life Simulation ([1]; 100 g ai/ha): C (26-50)
- Percent control based on fruit incidence vs untreated, Harvest ([1]; 100 g ai/ha): B (51-75)
- Percent control based on fruit incidence vs untreated, Shelf Life Simulation ([1]; 150 g ai/ha): B (51-75)
- Percent control based on fruit incidence vs untreated, Harvest ([1]; 150 g ai/ha): B (51-75)
- Percent control (AUDPC) from fruit severity assessments ([2]; 50 g ai/ha): B (51-75)
- Percent control (AUDPC) from fruit severity assessments ([2]; 100 g ai/ha): A (76-100)
- Percent control (AUDPC) from fruit severity assessments ([2]; 150 g ai/ha): A (76-100)
- Percent control (AUDPC) from fruit incidence, RIZPST ([3]; 50 g ai/ha): B (51-75)
- Percent control (AUDPC) from fruit incidence, RIZPST ([3]; 100 g ai/ha): C (26-50)
- Percent control (AUDPC) from fruit incidence, RIZPST ([3]; 150 g ai/ha): C (26-50)
- Calc Percent Control of CLADCA (AUDPC) ([4]; 60 g ai/ha, Agnique BP420, 240 mL/ha): 25.1%
- Calc Percent Control of CLADCA (AUDPC) ([4]; 60 g ai/ha, MSO, 120 g ai/ha): 29.8%
- Calc Percent Control of CLADCA (AUDPC) ([4]; 120 g ai/ha, Adsee C80W 80%, 300 g ai/ha): 21.9%
- Calc Percent Control of CLADCA (AUDPC) ([4]; 120 g ai/ha, Agnique BP420, 480 mL/ha): 28.8%
- Calc Percent Control of CLADCA (AUDPC) ([4]; 120 g ai/ha, MSO, 240 g ai/ha): 30.1%
- Calc Percent Control of CLADCA (AUDPC) ([4]; 150 g ai/ha, Agnique BP420, 600 mL/ha): 35.0%
- Calc Percent Control of CLADCA (AUDPC) ([4]; 150 g ai/ha, MSO, 300 g ai/ha): 29.8%
- Calc Percent Control of CLADCA (AUDPC) ([4]; 180 g ai/ha, Agnique BP420, 720 mL/ha): 32.5%
- Calc Percent Control of CLADCA (AUDPC) ([4]; 180 g ai/ha, MSO, 360 g ai/ha): 53.0%
